Laboratory results taken from patent US20030228365A1, “Pharmaceutical formulation” (priority 2002, published 2003).
Where a SMILES comes first, the peptide text is derived from it.

Method: A sample of the compound of formula (Ia) in PLG gel was dissolved in aqueous acetonitrile and further diluted with water. The precipitated polymer was subsequently removed by filtration through a membrane filter. The concentration of the compound of formula (Ia) in the filtrate was determined by HPLC.

CCC[C@H](NC(=O)[C@@H](NC(=O)[C@H](NC(=O)[C@@H](NC(=O)CNC(=O)CN(C)C(C)=O)C(C)C)[C@H](C)CC)[C@@H](C)O)C(=O)N[C@H](C(=O)N[C@@H](CCCN=C(N)N)C(=O)N1CCC[C@H]1C(=O)NCC)[C@@H](C)CC [compound of formula (Ia), N-Ac-Sar-Gly-Val-DIle-Thr-Nva-Ile-Arg-ProNHCH2CH3] (HELM PEPTIDE1{[ac].[Sar].G.V.[dI].T.[Nva].I.R.P.[CCN[*:1]]}$$$$V2.0)
degradation found by HPLC: no extensive degradation
